According to patent publication US20060069132A1, “Azolecarboxamide herbicides” (priority 2004, published 2006):

What was measured:
soybean = experiment: Test C pre-/postemergence herbicide test; type: in vivo, Glycine max; conditions: for Soybean plant response rating: 500 g ai/ha
Summary of the method: (§1)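 Preemergence: seeds planted and treated with compound in non-phytotoxic solvent with surfactant; postemergence: plants at 2 to 18 cm (1- to 4-leaf stage) sprayed likewise. Kept in greenhouse 12 to 14 days, then visually rated against controls, 0 (no effect) to 100 (complete control).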

velvetleaf [1] = experiment: Test A pre-/postemergence herbicide test; type: in vivo, Abutilon theophrasti
Summary of the method: (§2)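 Sandy loam soil given preemergence directed spray; plants at 2 to 10 cm, one- to two-leaf stage, sprayed to runoff postemergence, compounds in non-phytotoxic solvent with surfactant. Injury rated visually versus untreated controls after about ten greenhouse days, 0 (no effect) to 100 (complete control); dash means not tested.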

woolly cupgrass = experiment: Test C pre-/postemergence herbicide test; type: in vivo, Eriochloa villosa; conditions: for Cupgrass, Woolly plant response rating: 500 g ai/ha
Summary of the method: as §1

goosegrass = experiment: Test C pre-/postemergence herbicide test; type: in vivo, Eleusine indica; conditions: for Goosegrass plant response rating: 500 g ai/ha
Summary of the method: as §1

bermudagrass = experiment: Test C pre-/postemergence herbicide test; type: in vivo, Cynodon dactylon; conditions: for Bermudagrass plant response rating: 500 g ai/ha
Summary of the method: as §1

redroot pigweed = experiment: Test A pre-/postemergence herbicide test; type: in vivo, Amaranthus retroflexus
Summary of the method: as §2

cocklebur = experiment: Test C pre-/postemergence herbicide test; type: in vivo, Xanthium strumarium; conditions: for Cocklebur plant response rating: 500 g ai/ha
Summary of the method: as §1

morningglory = experiment: Test C pre-/postemergence herbicide test; type: in vivo, Ipomoea coccinea; set-up: key to Plant response rating, Morningglory: 0 = no effect, 100 = complete control; conditions: for Morningglory plant response rating: 500 g ai/ha
Summary of the method: as §1

giant foxtail = experiment: Test C pre-/postemergence herbicide test; type: in vivo, Setaria faberi; conditions: for Foxtail, Giant plant response rating: 500 g ai/ha
Summary of the method: as §1

velvetleaf [2] = experiment: Test C pre-/postemergence herbicide test; type: in vivo, Abutilon theophrasti; conditions: for Velvetleaf plant response rating: 500 g ai/ha
Summary of the method: as §1

corn = experiment: Test C pre-/postemergence herbicide test; type: in vivo, Zea mays; conditions: for Corn plant response rating: 500 g ai/ha
Summary of the method: as §1

kochia = experiment: Test C pre-/postemergence herbicide test; type: in vivo, Kochia scoparia; conditions: for Kochia plant response rating: 500 g ai/ha
Summary of the method: as §1

yellow nutsedge = experiment: Test C pre-/postemergence herbicide test; type: in vivo, Cyperus esculentus; conditions: for Nutsedge, Yellow plant response rating: 500 g ai/ha
Summary of the method: as §1

[3] = 125 g ai/ha, scale 0 (no effect) to 100 (complete control), visual, 12 to 14 days, preemergence
[4] = Postemergence, 250 g ai/ha, scale 0 to 100, 0 no effect, 100 complete control
[5] = Preemergence, scale 0 to 100, 0 no effect, 100 complete control
[6] = postemergence, 125 g ai/ha, scale 0 to 100
[7] = Postemergence, 500 g ai/ha, 0 to 100 scale, 0 no effect, 100 complete control
[8] = Postemergence, 2000 g ai/ha, 0 to 100 scale, 0 no effect, 100 complete control
[9] = Preemergence, 2000 g ai/ha, visual rating, 0 to 100 scale (0 no effect, 100 complete control)
[10] = preemergence, 500 g ai/ha, visual injury, 0 to 100 scale (0 no effect, 100 complete control)
[11] = 250 g ai/ha, scale 0 to 100 (0 no effect, 100 complete control), visual, 12 to 14 days, preemergence
[12] = 62 g ai/ha, preemergence, scale 0 to 100
[13] = 250 g ai/ha, scale 0-100, preemergence

## CCn1nc(C(C)(C)C)cc1C(=O)Nc1cccc(SC(F)(F)F)c1 [Compound 130]
soybean; 62 g ai/ha, preemergence
  Plant response rating (0 = no effect, 100 = complete control), Soybean: 0
soybean; [3]
  Plant response rating, Soybean: 0
soybean; Postemergence, scale 0 to 100
  Soybean plant response rating: 70
soybean; [4]
  Plant response rating, Soybean: 40
soybean; [5]
  Soybean plant response rating: 10
soybean; [6]
  Plant response rating, Soybean: 40
Velvetleaf [1]; [7]
  Velvetleaf plant response rating: 20
Velvetleaf [1]; [8]
  Plant response rating, Velvetleaf: 20
Velvetleaf [1]; [9]
  Velvetleaf plant response rating: 30
Velvetleaf [1]; [10]
  Velvetleaf plant response rating: 20
Woolly cupgrass; 62 g ai/ha, preemergence
  Plant response rating (0 = no effect, 100 = complete control), Cupgrass, Woolly: 5
Woolly cupgrass; [3]
  Plant response rating, Cupgrass, Woolly: 10
Woolly cupgrass; [11]
  Plant response rating, Cupgrass, Woolly: 40
Woolly cupgrass; Postemergence, scale 0 to 100
  Cupgrass, Woolly plant response rating: 80
Woolly cupgrass; [4]
  Plant response rating, Cupgrass, Woolly: 60
Woolly cupgrass; [5]
  Cupgrass, Woolly plant response rating: 70
Woolly cupgrass; [6]
  Plant response rating, Cupgrass, Woolly: 50
goosegrass; 62 g ai/ha, preemergence
  Plant response rating (0 = no effect, 100 = complete control), Goosegrass: 10
goosegrass; [3]
  Plant response rating, Goosegrass: 20
goosegrass; Postemergence, scale 0 to 100
  Goosegrass plant response rating: 60
goosegrass; [4]
  Plant response rating, Goosegrass: 60
goosegrass; [5]
  Goosegrass plant response rating: 50
goosegrass; [6]
  Plant response rating, Goosegrass: 20
bermudagrass; 62 g ai/ha, preemergence
  Plant response rating (0 = no effect, 100 = complete control), Bermudagrass: 60
bermudagrass; [3]
  Plant response rating, Bermudagrass: 90
bermudagrass; [11]
  Plant response rating, Bermudagrass: 100
bermudagrass; Postemergence, scale 0 to 100
  Bermudagrass plant response rating: 90
bermudagrass; [4]
  Plant response rating, Bermudagrass: 90
bermudagrass; [5]
  Bermudagrass plant response rating: 100
bermudagrass; [6]
  Plant response rating, Bermudagrass: 85
Redroot pigweed; [7]
  Pigweed plant response rating: 50
Redroot pigweed; [8]
  Plant response rating, Pigweed: 65
Redroot pigweed; [9]
  Pigweed plant response rating: 65
Redroot pigweed; [10]
  Pigweed plant response rating: 35
cocklebur; 62 g ai/ha, preemergence
  Plant response rating (0 = no effect, 100 = complete control), Cocklebur: 0
cocklebur; [11]
  Plant response rating, Cocklebur: 70
cocklebur; Postemergence, scale 0 to 100
  Cocklebur plant response rating: 100
cocklebur; [4]
  Plant response rating, Cocklebur: 90
cocklebur; [5]
  Cocklebur plant response rating: 100
cocklebur; [6]
  Plant response rating, Cocklebur: 30
morningglory; 62 g ai/ha, preemergence
  Plant response rating (0 = no effect, 100 = complete control), Morningglory: 0
morningglory; [3]
  Plant response rating, Morningglory: 0
morningglory; Postemergence, scale 0 to 100
  Morningglory plant response rating: 100
morningglory; [4]
  Plant response rating, Morningglory: 80
morningglory; [5]
  Morningglory plant response rating: 30
morningglory; [6]
  Plant response rating, Morningglory: 40
Giant foxtail; 62 g ai/ha, preemergence
  Plant response rating (0 = no effect, 100 = complete control), Foxtail, Giant: 40
Giant foxtail; [3]
  Plant response rating, Foxtail, Giant: 45
Giant foxtail; [11]
  Plant response rating, Foxtail, Giant: 65
Giant foxtail; Postemergence, scale 0 to 100
  Foxtail, Giant plant response rating: 30
Giant foxtail; [4]
  Plant response rating, Foxtail, Giant: 15
Giant foxtail; [5]
  Foxtail, Giant plant response rating: 95
Giant foxtail; [6]
  Plant response rating, Foxtail, Giant: 10
Velvetleaf [2]; [3]
  Plant response rating, Velvetleaf: 10
Velvetleaf [2]; Postemergence, scale 0 to 100
  Velvetleaf plant response rating: 85
Velvetleaf [2]; [4]
  Plant response rating, Velvetleaf: 40
Velvetleaf [2]; [5]
  Velvetleaf plant response rating: 100
Velvetleaf [2]; [6]
  Plant response rating, Velvetleaf: 30
corn; 62 g ai/ha, preemergence
  Plant response rating (0 = no effect, 100 = complete control), Corn: 0
corn; [3]
  Plant response rating, Corn: 5
corn; [11]
  Plant response rating, Corn: 5
corn; Postemergence, scale 0 to 100
  Corn plant response rating: 50
corn; [4]
  Plant response rating, Corn: 45
corn; [5]
  Corn plant response rating: 10
corn; [6]
  Plant response rating, Corn: 45
kochia; 62 g ai/ha, preemergence
  Plant response rating (0 = no effect, 100 = complete control), Kochia: 0
kochia; [3]
  Plant response rating, Kochia: 0
kochia; Postemergence, scale 0 to 100
  Kochia plant response rating: 85
kochia; [4]
  Plant response rating, Kochia: 70
kochia; [5]
  Kochia plant response rating: 100
kochia; [6]
  Plant response rating, Kochia: 30
Yellow nutsedge; 62 g ai/ha, preemergence
  Plant response rating (0 = no effect, 100 = complete control), Nutsedge, Yellow: 0
Yellow nutsedge; [3]
  Plant response rating, Nutsedge, Yellow: 0
Yellow nutsedge; Postemergence, scale 0 to 100
  Nutsedge, Yellow plant response rating: 0
Yellow nutsedge; [4]
  Plant response rating, Nutsedge, Yellow: 0
Yellow nutsedge; [5]
  Nutsedge, Yellow plant response rating: 0
Yellow nutsedge; [6]
  Plant response rating, Nutsedge, Yellow: 0

## CC(=NO)c1cccc(NC(=O)c2sc(C(C)(C)C)nc2C)c1 [Compound 195]
soybean; [12]
  Plant response rating, Soybean: 0
soybean; [3]
  Plant response rating, Soybean: 0
soybean; [13]
  Plant response rating, Soybean: 0
soybean; [5]
  Soybean plant response rating: 0
Velvetleaf [1]; [7]
  Velvetleaf plant response rating: 0
Velvetleaf [1]; [8]
  Plant response rating, Velvetleaf: 15
Velvetleaf [1]; [9]
  Velvetleaf plant response rating: 15
Velvetleaf [1]; [10]
  Velvetleaf plant response rating: 0
Woolly cupgrass; [12]
  Plant response rating, Cupgrass, Woolly: 0
Woolly cupgrass; [3]
  Plant response rating, Cupgrass, Woolly: 0
Woolly cupgrass; [13]
  Plant response rating, Cupgrass, Woolly: 10
Woolly cupgrass; [5]
  Cupgrass, Woolly plant response rating: 10
goosegrass; [12]
  Plant response rating, Goosegrass: 100
goosegrass; [3]
  Plant response rating, Goosegrass: 100
goosegrass; [13]
  Plant response rating, Goosegrass: 100
goosegrass; [5]
  Goosegrass plant response rating: 100
bermudagrass; 62 g ai/ha, preemergence, scale 0 to 100, 0 no effect, 100 complete control
  Plant response rating, Bermudagrass: 0
bermudagrass; [3]
  Plant response rating, Bermudagrass: 0
bermudagrass; [13]
  Plant response rating, Bermudagrass: 30
bermudagrass; [5]
  Bermudagrass plant response rating: 65
Redroot pigweed; [7]
  Pigweed plant response rating: 5
Redroot pigweed; [8]
  Plant response rating, Pigweed: 25
Redroot pigweed; [9]
  Pigweed plant response rating: 0
Redroot pigweed; [10]
  Pigweed plant response rating: 0
cocklebur; [12]
  Plant response rating, Cocklebur: 0
cocklebur; [3]
  Plant response rating, Cocklebur: 0
cocklebur; [13]
  Plant response rating, Cocklebur: 0
cocklebur; [5]
  Cocklebur plant response rating: 0
morningglory; [12]
  Plant response rating, Morningglory: 0
morningglory; [3]
  Plant response rating, Morningglory: 0
morningglory; [13]
  Plant response rating, Morningglory: 0
morningglory; [5]
  Morningglory plant response rating: 0
Giant foxtail; [12]
  Plant response rating, Foxtail, Giant: 0
Giant foxtail; [3]
  Plant response rating, Foxtail, Giant: 0
Giant foxtail; [13]
  Plant response rating, Foxtail, Giant: 0
Giant foxtail; [5]
  Foxtail, Giant plant response rating: 20
Velvetleaf [2]; [12]
  Plant response rating, Velvetleaf: 0
Velvetleaf [2]; [3]
  Plant response rating, Velvetleaf: 50
Velvetleaf [2]; [13]
  Plant response rating, Velvetleaf: 55
Velvetleaf [2]; [5]
  Velvetleaf plant response rating: 100
corn; [12]
  Plant response rating, Corn: 0
corn; [3]
  Plant response rating, Corn: 0
corn; [13]
  Plant response rating, Corn: 0
corn; [5]
  Corn plant response rating: 0
kochia; [12]
  Plant response rating, Kochia: 0
kochia; [3]
  Plant response rating, Kochia: 0
kochia; [13]
  Plant response rating, Kochia: 10
kochia; [5]
  Kochia plant response rating: 85
Yellow nutsedge; [12]
  Plant response rating, Nutsedge, Yellow: 0
Yellow nutsedge; [3]
  Plant response rating, Nutsedge, Yellow: 0
Yellow nutsedge; [13]
  Plant response rating, Nutsedge, Yellow: 0
Yellow nutsedge; [5]
  Nutsedge, Yellow plant response rating: 70
